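Each compound was tested at five concentrations against cells in 96-well plates for 48 hours. GI50 = concentration required for 50% inhibition of growth. The concentration for full growth arrest is given as TGI.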

The first assay deals with RXF 393 renal. The experiment in a line: NCI-60 cell line screen, 48 h.
The compound `Nc1ccc(-c2nn3c(COc4ccc(Cl)cc4)nnc3s2)cc1` displayed a TGI of over 100 µM.

For the compound `c1ccc2[nH]c(CNc3ccc(C4C[Se]N=N4)cc3)nc2c1` (configuration not stated), the TGI was over 100 µM.

`O=C1C(C(O)(C(F)(F)F)C(F)(F)F)CCC1C(O)(C(F)(F)F)C(F)(F)F` (configuration not stated) registered a TGI of 26 µM.

Consider `COc1cc(/C=C2\CCC(C)/C(=C\c3cc(OC)c(OC)c(OC)c3)C2=O)cc(OC)c1OC` (configuration not stated), for which the TGI worked out at 6.36 µM.

In turn, `C[C@H]1OC(=O)[C@@H]2N=NN(Cc3ccccc3)[C@H]12` yielded a TGI of over 100 µM.

Consider `CN1N=C(c2ccncc2)OC1c1ccccc1F` (configuration not stated), for which the TGI is over 100 µM.

Take `COc1ccc(-n2nc(C)c3c(Nc4ccc(NC(=O)Nc5ccc(Cl)c(C(F)(F)F)c5)cc4)ncnc32)cc1`: the GI50 was 0.617 µM and the TGI turned out to be 2.17 µM.

The compound `CC1(C)CC(C#Cc2ccccc2)CC(C)(C)N1O` had a TGI of 63.4 µM.

With `CSc1nc2c(ncn2C2OC(CO)C(O)C(O)C2O)c(=O)[nH]1` (configuration not stated), the TGI was over 100 µM.

Take `Nc1ccccc1C(=O)C(Br)C(Br)c1ccc2c(c1)OCO2` (configuration not stated): the TGI came to 49.9 µM.

`CCCCCCCCCCCC1CC(=O)NCCCN(C)CCCCN(C)CCCN1C` (configuration not stated) displayed a TGI of 3.02 µM.

On to `COc1cc(C2c3cc4c(cc3[C@@H](Nc3ccc5c(c3)OCO5)C3COC(=O)[C@H]23)OCO4)cc(OC)c1O` (some centres not stated), for which the TGI turned out to be 6.15 µM.

For `CCN(CCCl)c1cc(CN(C)C)cc(NC(=O)c2ccc(C(=O)Nc3cccc(CN(C)C)c3)cc2)c1`, the TGI turned out to be 0.82 µM.

`CC(C)N1CN(c2ccccc2)C2(CCN(CCCC(=O)c3ccc(F)cc3)CC2)C1=O`: the TGI was over 82.2 µM.

The subject of another assay is PC-3 prostate. Description: NCI-60 cell line screen, 48 h.
The compound `COc1ccc(N2C(=O)C3c4[nH]c5ccccc5c4C4CCCCCCCCCC4C3C2=O)cc1` (configuration not stated) displayed a TGI of over 10 µM.

The compound `CC(C)C(N)C(=O)NC(CCC(=O)NCCCCC(N)C(=O)NCCCNc1ccc([N+](=O)[O-])c2[nH]c3ccccc3c(=O)c12)C(N)=O` (configuration not stated) displayed a TGI of over 100 µM.

With `Nc1ccc(-c2nn3c(COc4ccc(Cl)cc4)nnc3s2)cc1`, the TGI was over 100 µM.

Take `O=C1C(C(O)(C(F)(F)F)C(F)(F)F)CCC1C(O)(C(F)(F)F)C(F)(F)F` (configuration not stated): the TGI turned out to be 98.3 µM.

In turn, `COc1cc(/C=C2\CCC(C)/C(=C\c3cc(OC)c(OC)c(OC)c3)C2=O)cc(OC)c1OC` (configuration not stated) showed a TGI of 11.1 µM.

As to `C[C@H]1OC(=O)[C@@H]2N=NN(Cc3ccccc3)[C@H]12`, the TGI was over 100 µM.

As for `CN1N=C(c2ccncc2)OC1c1ccccc1F` (configuration not stated), the TGI was over 100 µM.

Take `COc1ccc(-n2nc(C)c3c(Nc4ccc(NC(=O)Nc5ccc(Cl)c(C(F)(F)F)c5)cc4)ncnc32)cc1`: the GI50 is 1.16 µM and the TGI was 3.95 µM.

In the case of `CC1(C)CC(C#Cc2ccccc2)CC(C)(C)N1O`, the TGI was 29.4 µM.

As for `CC(=O)Oc1c(C)c(C)c2c(c1C)CCC(C)(CC(=O)OCCCCCCCCCCC[P+](c1ccccc1)(c1ccccc1)c1ccccc1)O2` (configuration not stated), the GI50 was 0.194 µM and the TGI amounted to 0.976 µM.

For the compound `CCN(CCCl)c1cc(CN(C)C)cc(NC(=O)c2ccc(C(=O)Nc3cccc(CN(C)C)c3)cc2)c1`, the TGI stood at 0.733 µM.

As to `CC(C)N1CN(c2ccccc2)C2(CCN(CCCC(=O)c3ccc(F)cc3)CC2)C1=O`, the TGI is over 71 µM.

For the next assay, the system named is UO-31 renal. Description: NCI-60 cell line screen, 48 h.
Turning to `N#C/C(=C1\SC(N=Nc2ccc(Cl)cc2)C(=O)N1c1ccccc1)c1nc2ccccc2[nH]1` (configuration not stated), the TGI was determined as 40 µM.

`O=C(NN1C(=O)CSC1c1cccc(F)c1)c1ccncc1` (configuration not stated) yielded a TGI of over 100 µM.

Compound `COc1ccc(N2C(=O)C3c4[nH]c5ccccc5c4C4CCCCCCCCCC4C3C2=O)cc1` (configuration not stated) showed a TGI of over 10 µM.

Compound `O=C(CC(C(=O)c1ccco1)c1ccco1)c1ccco1` (configuration not stated) yielded a TGI of 92.5 µM.

`CC(C)C(N)C(=O)NC(CCC(=O)NCCCCC(N)C(=O)NCCCNc1ccc([N+](=O)[O-])c2[nH]c3ccccc3c(=O)c12)C(N)=O` (configuration not stated) showed a TGI of over 100 µM.

Turning to `Nc1ccc(-c2nn3c(COc4ccc(Cl)cc4)nnc3s2)cc1`, the TGI is over 100 µM.

On to `c1ccc2[nH]c(CNc3ccc(C4C[Se]N=N4)cc3)nc2c1` (configuration not stated), for which the TGI was over 100 µM.

`O=C1C(C(O)(C(F)(F)F)C(F)(F)F)CCC1C(O)(C(F)(F)F)C(F)(F)F` (configuration not stated) came in with a TGI of 34.3 µM.

As to `COc1cc(/C=C2\CCC(C)/C(=C\c3cc(OC)c(OC)c(OC)c3)C2=O)cc(OC)c1OC` (configuration not stated), the TGI is over 100 µM.

Take `C[C@H]1OC(=O)[C@@H]2N=NN(Cc3ccccc3)[C@H]12`: the TGI is over 100 µM.

Turning to `CN1N=C(c2ccncc2)OC1c1ccccc1F` (configuration not stated), the TGI is over 100 µM.

In turn, `Cc1ccc2oc(=O)c(-c3ccccc3)nc2c1` registered a TGI of 95.1 µM.

Compound `O=C(O)/C=C\C(=O)Nc1ccc(S(=O)(=O)c2ccc(NC(=O)/C=C\C(=O)O)cc2)cc1` showed a TGI of over 100 µM.

For the compound `COc1ccc(-n2nc(C)c3c(Nc4ccc(NC(=O)Nc5ccc(Cl)c(C(F)(F)F)c5)cc4)ncnc32)cc1`, the GI50 was 1.7 µM and the TGI is 3.69 µM.

`CC1(C)CC(C#Cc2ccccc2)CC(C)(C)N1O`: the TGI stood at 32.4 µM.

Compound `COc1ccc(/C=N/n2c(C)nc3c(sc(=S)n3-c3ccccc3)c2=O)cc1` gave a TGI of over 100 µM.

`CSc1nc2c(ncn2C2OC(CO)C(O)C(O)C2O)c(=O)[nH]1` (configuration not stated) yielded a TGI of over 100 µM.

Compound `Nc1ccccc1C(=O)C(Br)C(Br)c1ccc2c(c1)OCO2` (configuration not stated) displayed a TGI of 45.1 µM.

Turning to `CCCCCCCCCCCC1CC(=O)NCCCN(C)CCCCN(C)CCCN1C` (configuration not stated), the TGI stood at 3.11 µM.

`COc1cc(C2c3cc4c(cc3[C@@H](Nc3ccc5c(c3)OCO5)C3COC(=O)[C@H]23)OCO4)cc(OC)c1O` (some centres not stated): the TGI was determined as 9.7 µM.

`CCN(CCCl)c1cc(CN(C)C)cc(NC(=O)c2ccc(C(=O)Nc3cccc(CN(C)C)c3)cc2)c1` displayed a TGI of 76.3 µM.

The compound `CC(C)N1CN(c2ccccc2)C2(CCN(CCCC(=O)c3ccc(F)cc3)CC2)C1=O` showed a TGI of 58 µM.

The test system of another assay is LOX IMVI melanoma. The experiment in a line: NCI-60 cell line screen, 48 h.
In the case of `N#C/C(=C1\SC(N=Nc2ccc(Cl)cc2)C(=O)N1c1ccccc1)c1nc2ccccc2[nH]1` (configuration not stated), the TGI was 57.4 µM.

For `O=C(NN1C(=O)CSC1c1cccc(F)c1)c1ccncc1` (configuration not stated), the TGI is over 100 µM.

Compound `COc1ccc(N2C(=O)C3c4[nH]c5ccccc5c4C4CCCCCCCCCC4C3C2=O)cc1` (configuration not stated) yielded a TGI of over 10 µM.

As to `O=C(CC(C(=O)c1ccco1)c1ccco1)c1ccco1` (configuration not stated), the TGI is over 100 µM.

For `CC(C)C(N)C(=O)NC(CCC(=O)NCCCCC(N)C(=O)NCCCNc1ccc([N+](=O)[O-])c2[nH]c3ccccc3c(=O)c12)C(N)=O` (configuration not stated), the TGI stood at 80.2 µM.

`Nc1ccc(-c2nn3c(COc4ccc(Cl)cc4)nnc3s2)cc1` displayed a TGI of over 100 µM.

Consider `c1ccc2[nH]c(CNc3ccc(C4C[Se]N=N4)cc3)nc2c1` (configuration not stated), for which the TGI is over 100 µM.

`O=C1C(C(O)(C(F)(F)F)C(F)(F)F)CCC1C(O)(C(F)(F)F)C(F)(F)F` (configuration not stated) came in with a TGI of 10.6 µM.

On to `COc1cc(/C=C2\CCC(C)/C(=C\c3cc(OC)c(OC)c(OC)c3)C2=O)cc(OC)c1OC` (configuration not stated), for which the TGI is over 100 µM.

`CN1N=C(c2ccncc2)OC1c1ccccc1F` (configuration not stated): the TGI is over 100 µM.

`Cc1ccc2oc(=O)c(-c3ccccc3)nc2c1`: the TGI worked out at 62.9 µM.

Regarding `O=C(O)/C=C\C(=O)Nc1ccc(S(=O)(=O)c2ccc(NC(=O)/C=C\C(=O)O)cc2)cc1`, the TGI was over 100 µM.

For `COc1ccc(-n2nc(C)c3c(Nc4ccc(NC(=O)Nc5ccc(Cl)c(C(F)(F)F)c5)cc4)ncnc32)cc1`, the GI50 was 1.34 µM and the TGI came to 2.67 µM.

The compound `CC1(C)CC(C#Cc2ccccc2)CC(C)(C)N1O` yielded a TGI of 29.9 µM.

In turn, `CSc1nc2c(ncn2C2OC(CO)C(O)C(O)C2O)c(=O)[nH]1` (configuration not stated) returned a TGI of over 100 µM.

Regarding `Nc1ccccc1C(=O)C(Br)C(Br)c1ccc2c(c1)OCO2` (configuration not stated), the TGI worked out at 27.8 µM.

Turning to `CCCCCCCCCCCC1CC(=O)NCCCN(C)CCCCN(C)CCCN1C` (configuration not stated), the TGI amounted to 2.84 µM.

`COc1cc(C2c3cc4c(cc3[C@@H](Nc3ccc5c(c3)OCO5)C3COC(=O)[C@H]23)OCO4)cc(OC)c1O` (some centres not stated) gave a TGI of 3.4 µM.

In the case of `CCN(CCCl)c1cc(CN(C)C)cc(NC(=O)c2ccc(C(=O)Nc3cccc(CN(C)C)c3)cc2)c1`, the TGI turned out to be 0.569 µM.

`CC(C)N1CN(c2ccccc2)C2(CCN(CCCC(=O)c3ccc(F)cc3)CC2)C1=O`: the TGI was found to be 20.2 µM.

In the next assay the test system is SR leukemia. The experiment in a line: NCI-60 cell line screen, 48 h.
On to `COc1ccc(N2C(=O)C3c4[nH]c5ccccc5c4C4CCCCCCCCCC4C3C2=O)cc1` (configuration not stated), for which the TGI is over 10 µM.

`O=C(CC(C(=O)c1ccco1)c1ccco1)c1ccco1` (configuration not stated) had a TGI of over 100 µM.

Compound `c1ccc2[nH]c(CNc3ccc(C4C[Se]N=N4)cc3)nc2c1` (configuration not stated) registered a TGI of 36 µM.

Regarding `O=C1C(C(O)(C(F)(F)F)C(F)(F)F)CCC1C(O)(C(F)(F)F)C(F)(F)F` (configuration not stated), the TGI worked out at 43.8 µM.

`C[C@H]1OC(=O)[C@@H]2N=NN(Cc3ccccc3)[C@H]12` displayed a TGI of over 100 µM.

Turning to `Cc1ccc2oc(=O)c(-c3ccccc3)nc2c1`, the TGI was over 100 µM.

Consider `O=C(O)/C=C\C(=O)Nc1ccc(S(=O)(=O)c2ccc(NC(=O)/C=C\C(=O)O)cc2)cc1`, for which the TGI was over 100 µM.

Regarding `CC1(C)CC(C#Cc2ccccc2)CC(C)(C)N1O`, the TGI is over 100 µM.

With `COc1ccc(/C=N/n2c(C)nc3c(sc(=S)n3-c3ccccc3)c2=O)cc1`, the TGI was over 100 µM.

Regarding `Nc1ccccc1C(=O)C(Br)C(Br)c1ccc2c(c1)OCO2` (configuration not stated), the TGI is over 100 µM.

The compound `CCCCCCCCCCCC1CC(=O)NCCCN(C)CCCCN(C)CCCN1C` (configuration not stated) returned a TGI of 0.605 µM.

Compound `CCN(CCCl)c1cc(CN(C)C)cc(NC(=O)c2ccc(C(=O)Nc3cccc(CN(C)C)c3)cc2)c1` gave a TGI of 1.56 µM.

`CC(C)N1CN(c2ccccc2)C2(CCN(CCCC(=O)c3ccc(F)cc3)CC2)C1=O` gave a TGI of 46.1 µM.

Another assay concerns BT-549 breast. Description: NCI-60 cell line screen, 48 h.
The compound `CC(C)C(N)C(=O)NC(CCC(=O)NCCCCC(N)C(=O)NCCCNc1ccc([N+](=O)[O-])c2[nH]c3ccccc3c(=O)c12)C(N)=O` (configuration not stated) returned a TGI of 29.4 µM.

`COc1cc(/C=C2\CCC(C)/C(=C\c3cc(OC)c(OC)c(OC)c3)C2=O)cc(OC)c1OC` (configuration not stated): the TGI stood at 3.53 µM.

In the case of `COc1ccc(-n2nc(C)c3c(Nc4ccc(NC(=O)Nc5ccc(Cl)c(C(F)(F)F)c5)cc4)ncnc32)cc1`, the GI50 is 2.08 µM and the TGI was 6.34 µM.

On to `CC(=O)Oc1c(C)c(C)c2c(c1C)CCC(C)(CC(=O)OCCCCCCCCCCC[P+](c1ccccc1)(c1ccccc1)c1ccccc1)O2` (configuration not stated), for which the GI50 was 0.314 µM and the TGI was 0.99 µM.

The record behind these values is PubChem BioAssay (NCI).
